# Assay results taken from patent US12447167B2, “GM-CSF-producing t-cell control agent and Th1/Th2 immune balance regulator” (National Center of Neurology and Psychiatry, priority 2014, dated 2025).
# What was measured:
# IL-17 = IL-17 expression level of sorted CD4-positive memory T-cells of MS patients (ELISA of culture supernatant); type: in vivo, human; settings: 0.3 mg single oral
# Experimental: (§1) A single dose of compound 31, which is a synthetic glycolipid of the present invention, described in the first aspect was orally administered to each of 2 MS patients (subjects) shown in Table 2 above after obtainment of informed consent. The dose was set to 0.3 mg per person.
# (§2) Subsequently, T-cell subfractions were prepared from the peripheral blood of each subject by using the density gradient centrifugation method. First, a total of 20 mL of blood was collected from the vein of each subject 24 hours (1st day), 48 hours (2nd day), 72 hours (3rd day), 168 hours (7th day), and 192 hours (8th day) after the administration of compound 31 by using two 10-mL heparin sodium-containing vacuum blood collection tubes. For a control, 20 mL of blood was similarly collected from the vein of each subject one day before the administration of compound 31.
# (§3) The collected PBMCs were stained with antibodies by the following method. First, 10 μL of a solution consisting of 20 μL of MACS buffer, 0.25 μL of APC-Cy7-anti-CD3 antibody (BioLegend, Inc.), 1 μL of PB-anti-CD4 antibody (BioLegend, Inc.), 1 μL of PerCP-Cy5.5-anti-CD45RA antibody (BioLegend, Inc.), and 1 μL of PC7-anti-CD56 antibody (Beckman Coulter, Inc.) was added to 6×10^6 cells of PBMCs, thoroughly mixed by vortexing, and then left on ice for 20 minutes. CD56 is a detection marker of cells having NK activity, and CD3^−CD56^− cells indicate being antigen-presenting cells (APCs). […]
# (§4) mCD4T and APC obtained by the sorting were each suspended in a medium consisting of 500 mL of RPMI1640 (GIBCO/Thermo Fisher Scientific Inc.), 5 mL of glutamine (200 mM, Wako Pure Chemical Industries, Ltd.), 5 mL of Pen/strep (10,000 U/mL, GIBCO/Thermo Fisher Scientific Inc.), 0.5 mL of 2-mercaptoethanol (GIBCO/Thermo Fisher Scientific Inc.), and 50 mL of 10% (v/v) Cellect FETAL BOVINE SERUM (MP Biomedicals, LLC), and the number of cells was measured. […]
# (§5) After the culture, a culture supernatant was collected, and IFN-γ, IL-4, IL-17, and GM-CSF were measured by the ELISA method. […]
# [1] = test system: GM-CSF production from lymph node T-cells; assay: Amount of GM-CSF in lymph node cell culture supernatants of mice after oral dose (ELISA); type: in vivo, C57BL/6 mice; settings: for suppressive effects on GM-CSF production from lymph node T-cells: oral high dose 1 mg/kg
# Experimental: Compound 31 was orally administered to 8-week-old C57BL/6 mice (female) by using a probe. The dose employed 15 μg/kg (low dose) of compound 31 or 1 mg/kg (high dose) of compound 31 dissolved in 200 μL of mouse drinking water. As a control, 200 μL of mouse drinking water was administered alone.
# 2 days or 7 days after the oral administration of compound 31, each mouse was euthanized by cervical dislocation, and axillary and inguinal lymph nodes were collected. The collected lymph nodes were disrupted on BD Falcon Cell Strainer (Becton, Dickinson and Company) having a diameter of 40 μm, PBS was added, and the resultant was recovered into a 50-mL conical tube and centrifuged at 1500 rpm for 5 minutes, and then, a supernatant was removed by suction.
# The recovered cells were suspended into a single cell suspension by adding 1000 μL of an RPMI medium (Life Technologies Corp.) containing 10% FBS (Fetal Bovine Serum; Life Technologies Corp.), and then, the number of cells was measured with a counting chamber.
# On the day prior to the lymph node collection from the mice after the administration, an anti-CD3 monoclonal antibody (self-produced) and an anti-CD28 antibody (Becton, Dickinson and Company) were each adjusted to 1 μg/mL with PBS, placed at 50 μL to each well of BD Falcon 96-well flat bottom plate (Becton, Dickinson and Company), and stored at 4° C. so that the plate was coated with the anti-CD3/CD28 antibodies. The prepared single cell suspension was inoculated at 5×10^5 cells/well to the plate and then cultured at 37° C. for 48 hours in a 5% CO2 incubator to perform stimulation with the anti-CD3 antibody and the anti-CD28 antibody.
# A supernatant was recovered, and the concentration of GM-CS contained in the culture supernatant was measured by using an ELISA kit (OptEIA Mouse GM-CSF ELISA set; Becton, Dickinson and Company) according to the attached document.
# IL-4 = IL-4 expression level of sorted CD4-positive memory T-cells of MS patients (ELISA of culture supernatant); type: in vivo, human; settings: 0.3 mg single oral
# Experimental: as §1, §2, §3, §4, §5
smiles,measurement,setting,value
"CCCCCCCCCCCCCCCCCCCCCCCC(=O)NC(COC1OC(CO)C(O)C(O)C1O)[C@H](O)C(O)CCCCC (stereo in doubt) [compound 31, (2S,3S,4R)-1-O-(α-D-galactosyl)-2-(N-tetracosanoylamino)-1,3,4-nonanetriol]",IL-17 expression level,"IL-17; day 8, MBP stimulation, day −1 value 916.90",491.24
same,IL-17 expression level,"IL-17; day 8, OVA stimulation, day −1 value 666.56",158.50
same,change of expression level of IL-17,IL-17; day8 vs day-1,decreased
same,suppressive effects on GM-CSF production from lymph node T-cells,[1]; 2nd day after administration,not seen
same,suppressive effects on GM-CSF production from lymph node T-cells,[1]; 7th day after administration,observed
same,GM-CSF production from lymph node T-cells,"[1]; oral low dose 15 μg/kg, anti-CD3/CD28 stimulation 48 h, vs vehicle",significantly suppressed
same,IL-4 expression level,"IL-4; day 8, MBP stimulation, day −1 value 3.63",6.38
same,IL-4 expression level,"IL-4; day 8, OVA stimulation, day −1 value 3.66",7.19
same,change of expression level of IL-4,IL-4; day8 vs day-1,increased
